Patent US6376497B1, “Antifungal azole derivatives having a fluorinated vinyl group and process for preparing same” (Korea Research Institute of Chemical Technology, priority 1999, dated 2002)
In brackets after ≈: the same amount, converted by molar mass.

Assays:
Assay in all cases: In vitro antifungal activity, microbroth dilution MIC
Format in all cases: cell-based
[1] = test system: Aspergillus furnigatus B. 19119; conditions: 4 to 48 hours; for Minimal inhibitory concentration (MIC): A furnigatus B. 19119, RPMI-1640, 35° C.
How it was run: (§1)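 Broth microdilution adapted from NCCLS M27, in RPMI-1640 with 0.165 M MOPS, pH 7.0. Yeast or mould inoculum at 2×10^3 CFU/ml was mixed 1:1 with DMSO-derived compound solutions (200 to 0.10 μg/ml before mixing) and incubated at 35 °C for 4 to 48 h. MIC was the concentration showing no growth.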

[2] = test system: Aspergillus niger A. 16404; conditions: 4 to 48 hours; for Minimal inhibitory concentration (MIC): A. niger A. 16404, RPMI-1640, 35° C.
How it was run: as §1

[3] = test system: Candida albicans A. 10231; conditions: 4 to 48 hours; for Minimal inhibitory concentration (MIC): C. albicans A. 10231, RPMI-1640, 35° C.
How it was run: as §1

[4] = test system: Candida albicans C1-2; conditions: 4 to 48 hours; for Minimal inhibitory concentration (MIC): C. albicans C1-2, RPMI-1640, 35° C.
How it was run: as §1

[5] = test system: Candida albicans IFO. 1385; conditions: 4 to 48 hours; for Minimal inhibitory concentration (MIC): C. albicans IFO. 1385, RPMI-1640, 35° C.
How it was run: as §1

[6] = test system: Candida krusei K. 11655; conditions: 4 to 48 hours; for Minimal inhibitory concentration (MIC): C. krusei K. 11655, RPMI-1640, 35° C.
How it was run: as §1

[7] = test system: Candida parapsitosis A. 7330; conditions: 4 to 48 hours; for Minimal inhibitory concentration (MIC): C. parapsitosis A. 7330, RPMI-1640, 35° C.
How it was run: as §1

[8] = test system: Candida pseudotropicalis K. 11658; conditions: 4 to 48 hours; for Minimal inhibitory concentration (MIC): C. pseudotropicalis K. 11658, RPMI-1640, 35° C.
How it was run: as §1

[9] = test system: Candida tropicalis A. 13803; conditions: 4 to 48 hours; for Minimal inhibitory concentration (MIC): C. tropicalis A. 13803, RPMI-1640, 35° C.
How it was run: as §1

[10] = test system: Cryptococcus neoformans A. 34144; conditions: 4 to 48 hours; for Minimal inhibitory concentration (MIC): Cry. neoformans A. 34144, RPMI-1640, 35° C.
How it was run: as §1

[11] = test system: Cryptococcus neoformans B. 42419; conditions: 4 to 48 hours; for Minimal inhibitory concentration (MIC): Cry. neoformans B. 42419, RPMI-1640, 35° C.
How it was run: as §1

[12] = test system: Cryptococcus neoformans IFM. 40092; conditions: 4 to 48 hours; for Minimal inhibitory concentration (MIC): Cry. neoformans IFM. 40092, RPMI-1640, 35° C.
How it was run: as §1

[13] = test system: Torulopsis glabrata B. 16205; conditions: 4 to 48 hours; for Minimal inhibitory concentration (MIC): T. glabrata B. 16205, RPMI-1640, 35° C.
How it was run: as §1

[14] = test system: Trichophyton mentagrophytes A. 9129; conditions: 4 to 48 hours; for Minimal inhibitory concentration (MIC): T. mentagrophytes A. 9129, RPMI-1640, 35° C.
How it was run: as §1

[15] = test system: Trichophyton mentagrophytes B. 32663; conditions: 4 to 48 hours; for Minimal inhibitory concentration (MIC): T. mentagrophytes B. 32663, RPMI-1640, 35° C.
How it was run: as §1

[16] = RPMI-1640, 35° C., no growth observed

Row | Minimal inhibitory concentration (MIC) [1] | Minimal inhibitory concentration (MIC) [2] | Minimal inhibitory concentration (MIC) [3] | Minimal inhibitory concentration (MIC) [4] | Minimal inhibitory concentration (MIC) [5] | Minimal inhibitory concentration (MIC) [6] | Minimal inhibitory concentration (MIC) [7] | Minimal inhibitory concentration (MIC) [8] | Minimal inhibitory concentration (MIC) [9] | Minimal inhibitory concentration (MIC) [10] | Minimal inhibitory concentration (MIC) [11] | Minimal inhibitory concentration (MIC) [12] | Minimal inhibitory concentration (MIC) [13] | Minimal inhibitory concentration (MIC) [14] | Minimal inhibitory concentration (MIC) [15] | SMILES | also measured
1 | 12.5 µg/mL (≈ 22.7 µM) | 25.0 µg/mL (≈ 45.3 µM) | 25.0 µg/mL (≈ 45.3 µM) | 25.0 µg/mL (≈ 45.3 µM) | 1.56 µg/mL (≈ 2.83 µM) | >100 µg/mL | >100 µg/mL | >100 µg/mL | >100 µg/mL | 0.78 µg/mL (≈ 1.41 µM) | 0.78 µg/mL (≈ 1.41 µM) | 0.20 µg/mL (≈ 0.362 µM) | 12.5 µg/mL (≈ 22.7 µM) | 6.25 µg/mL (≈ 11.3 µM) | 1.56 µg/mL (≈ 2.83 µM) | FC(OCC1COC(Cn2ccnc2)(c2ccc(Cl)cc2Cl)O1)=C(c1cccc(Cl)c1)C(F)(F)F (stereo not drawn) [Ex. 30] | 
2 | 6.25 µg/mL | 25.0 µg/mL | 12.5 µg/mL | 12.5 µg/mL | 0.39 µg/mL | 25.0 µg/mL | 12.5 µg/mL | 12.5 µg/mL | 25.0 µg/mL | 1.56 µg/mL | 1.56 µg/mL | 0.20 µg/mL | 6.25 µg/mL | 3.13 µg/mL | 0.78 µg/mL | Cc1cc(C=C(F)OCC2COC(Cn3ccnc3)(c3ccc(F)cc3F)O2)ccc1Cl (mixture of isomers) [Ex. 50] | 
3 |  |  |  |  |  |  |  |  |  |  |  |  |  |  |  | FC(Oc1ccc(OCC2COC(Cn3ccnc3)(c3ccc(F)cc3F)O2)cc1)=C(c1ccc2c(c1)OCO2)C(F)(F)F (mixture of isomers) [Ex. 112] | Minimal inhibitory concentration(MIC), A furnigatus B. 19119 [1, 16]: >100 µg/mL; Minimal inhibitory concentration(MIC), A. niger A. 16404 [2, 16]: >100 µg/mL; Minimal inhibitory concentration(MIC), C. albicans A. 10231 [3, 16]: 25.0 µg/mL; Minimal inhibitory concentration(MIC), C. albicans C1-2 [4, 16]: 12.5 µg/mL; Minimal inhibitory concentration(MIC), C. albicans IFO. 1385 [5, 16]: 1.56 µg/mL; Minimal inhibitory concentration(MIC), C. krusei K. 11655 [6, 16]: >100 µg/mL; Minimal inhibitory concentration(MIC), C. parapsitosis A. 7330 [7, 16]: >100 µg/mL; Minimal inhibitory concentration(MIC), C. pseudotropicalis K. 11658 [8, 16]: 25.0 µg/mL; Minimal inhibitory concentration(MIC), C. tropicalis A. 13803 [9, 16]: 100 µg/mL; Minimal inhibitory concentration(MIC), Cry. neoformans A. 34144 [10, 16]: 1.56 µg/mL; Minimal inhibitory concentration(MIC), Cry. neoformans B. 42419 [11, 16]: 1.56 µg/mL; Minimal inhibitory concentration(MIC), Cry. neoformans IFM. 40092 [12, 16]: 0.39 µg/mL; Minimal inhibitory concentration(MIC), T. glabrata B. 16205 [13, 16]: 50.0 µg/mL; Minimal inhibitory concentration(MIC), T. mentagrophytes A. 9129 [14, 16]: 6.25 µg/mL; Minimal inhibitory concentration(MIC), T. mentagrophytes B. 32663 [15, 16]: 3.13 µg/mL
4 | 3.13 µg/mL (≈ 6.7 µM) | 3.13 µg/mL (≈ 6.7 µM) | 12.5 µg/mL (≈ 26.7 µM) | 6.25 µg/mL (≈ 13.4 µM) | 0.78 µg/mL (≈ 1.67 µM) | 6.25 µg/mL (≈ 13.4 µM) | 6.25 µg/mL (≈ 13.4 µM) | 3.13 µg/mL (≈ 6.7 µM) | 25.0 µg/mL (≈ 53.5 µM) | 1.56 µg/mL (≈ 3.34 µM) | 1.56 µg/mL (≈ 3.34 µM) | 0.39 µg/mL (≈ 0.835 µM) | 6.25 µg/mL (≈ 13.4 µM) | 1.56 µg/mL (≈ 3.34 µM) | 1.56 µg/mL (≈ 3.34 µM) | FC(=Cc1ccc(F)cc1)OCC1COC(Cn2ccnc2)(c2ccc(Cl)cc2Cl)O1 (stereo not drawn) [Ex. 16] | 
